Measurements: patent US20250011331A1 (Nimbus Saturn, Inc., priority 2021, published 2025)

molecular target: T1, HPK1 (Homo sapiens, UniProt Q92918); test: HPK1 biochemical enzyme assay (microfluidic mobility shift); settings: 1.5 nM HPK1 (Invitrogen), 1 mM ATP, 30 min preincubation, 60 min at RT, Caliper EZ Reader
T1 construct: purchased Invitrogen
Experimental: HPK1 biochemical enzyme assay: HPK1 enzyme inhibition was measured using a microfluidic mobility shift assay. Reactions were performed in a 384-well plate, containing 1.5 nM HPK1 (Invitrogen), in assay buffer (Cama Biosciences; pH 7.4). Test compounds were titrated in ten point curves (top final assay concentration 3 μM), and preincubated with enzyme/substrate mix for 30 min prior to initiation of the reaction by addition of ATP (1 mM final concentration) and substrate (1 μM final concentration; Carna Biosciences) diluted in assay buffer supplemented by MgCl2 (final assay concentration of 5 mM). Following 60 min incubation at RT, the reaction was terminated by addition of 60 μl/well termination buffer (Carna Biosciences) and signal determination using a Caliper EZ Reader (Perkin Elmer, UK).

T1 sequence (Q92918 whole entry): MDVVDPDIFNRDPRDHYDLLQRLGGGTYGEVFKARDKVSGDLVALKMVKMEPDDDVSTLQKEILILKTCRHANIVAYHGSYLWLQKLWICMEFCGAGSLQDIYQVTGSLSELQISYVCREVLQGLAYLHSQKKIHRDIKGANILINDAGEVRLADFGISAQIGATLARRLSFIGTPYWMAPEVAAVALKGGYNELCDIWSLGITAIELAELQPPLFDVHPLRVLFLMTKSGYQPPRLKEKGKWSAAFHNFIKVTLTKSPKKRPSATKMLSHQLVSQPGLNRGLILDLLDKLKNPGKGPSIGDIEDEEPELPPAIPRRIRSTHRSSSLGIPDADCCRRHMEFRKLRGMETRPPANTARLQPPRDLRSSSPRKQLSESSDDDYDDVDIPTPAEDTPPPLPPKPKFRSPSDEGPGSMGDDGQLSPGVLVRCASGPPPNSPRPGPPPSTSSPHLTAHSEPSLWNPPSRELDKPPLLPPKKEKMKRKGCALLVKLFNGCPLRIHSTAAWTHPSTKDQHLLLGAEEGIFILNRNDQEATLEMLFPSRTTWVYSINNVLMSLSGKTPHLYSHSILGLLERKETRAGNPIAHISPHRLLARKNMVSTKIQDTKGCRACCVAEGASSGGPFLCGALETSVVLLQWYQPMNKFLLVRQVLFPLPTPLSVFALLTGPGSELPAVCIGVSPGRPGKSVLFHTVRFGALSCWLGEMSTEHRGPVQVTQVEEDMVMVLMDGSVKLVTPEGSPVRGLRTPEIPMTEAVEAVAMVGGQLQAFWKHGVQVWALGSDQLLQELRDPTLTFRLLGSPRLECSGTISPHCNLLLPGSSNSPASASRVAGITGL

| SMILES | IC50 [nM] |
| --- | --- |
| C[C@@H](OC[C@H]1COCCO1)c1ccc(Nc2ccc(-c3cnc4cc(F)ccn34)c3c2C(=O)NC3)nc1CN(C)C (single isomer, unassigned) [Compound I-34] | ≤ 100 |
| C[C@H](OC1CCOCC1)c1ccc(Nc2ccc(-c3cnc4cc(F)ccn34)c3c2C(=O)NC3)nc1CN(C)C (single isomer, unassigned) [Compound I-26] | ≤ 100 |
| COCC1CC(c2ccc(Nc3ccc(-c4cnc5cc(F)ccn45)c4c3C(=O)NC4)nc2CN(C)C)CCO1 (centres unmarked) [Compound I-32] | ≤ 100 |
| CN(C)Cc1nc(Nc2ccc(-c3cnc4cnccn34)c3c2C(=O)NC3)ccc1OCC1CCC(F)(F)CC1 [Compound I-11] | ≤ 100 |
| CC(c1ccc(Nc2ccc(-c3cnc4cnccn34)c3c2C(=O)NC3)nc1CN(C)C)C1CCOCC1 (centres unmarked) [Compound I-35] | ≤ 100 |
| C[C@@H](c1ccc(Nc2ccc(-c3cnc4cnccn34)c3c2C(=O)NC3)nc1CN(C)C)C1CCOCC1 [Compound I-36] | ≤ 100 |
| CO[C@H]1CCN(Cc2nc(Nc3ccc(-c4cnc5cc(F)ccn45)c4c3C(=O)NC4)ccc2C2CCN(C)C(=O)C2)C1 (stereo partly drawn) [Compound I-44, 4-(7-fluoroimidazo[1,2-a]pyridin-3-yl)-7-[[6-[[(3S)-3-methoxypyrrolidin-1-yl]methyl]-5-(1-methyl-2-oxo-4-piperidyl)-2-pyridyl]amino]isoindolin-1-one] | ≤ 100 |
| C[C@H](c1ccc(Nc2ccc(-c3cnc4cnccn34)c3c2C(=O)NC3)nc1CN(C)C)C1CCOCC1 [Compound I-37] | ≤ 100 |
| CN(C)Cc1nc(Nc2ccc(-c3cnc4cc(F)ccn34)c3c2C(=O)NC3)ccc1[C@H]1CC[C@@H](O)C1 [Compound I-1, 7-((6-((dimethylamino)methyl)-5-((1S,3R)-3-hydroxycyclopentyl)pyridin-2-yl)amino)-4-(7-fluoroimidazo[1,2-a]pyridin-3-yl)isoindolin-1-one] | ≤ 100 |
| CN(C)Cc1nc(Nc2ccc(-c3cnc4cc(F)ccn34)c3c2C(=O)NC3)ccc1OC1CC2(COC2)C1 [Compound I-40, 7-((5-((2-oxaspiro[3.3]heptan-6-yl)oxy)-6-((dimethylamino)methyl)pyridin-2-yl)amino)-4-(7-fluoroimidazo[1,2-a]pyridin-3-yl)isoindolin-1-one] | ≤ 100 |
| CN1CCN(C(=O)[C@@H]2CCOC2)c2ccc(Nc3ccc(-c4cnc5cc(F)ccn45)c4c3C(=O)NC4)nc2C1 (single isomer, unassigned) [Compound I-17] | 100 to 1000 |
| COC1CN(Cc2nc(Nc3ccc(-c4cnc5cnccn45)c4c3C(=O)NC4)ccc2C2CCOC2)C1 (centres unmarked) [Compound I-42, 4-imidazo[1,2-a]pyrazin-3-yl-7-[[6-[(3-methoxyazetidin-1-yl)methyl]-5-tetrahydrofuran-3-yl-2-pyridyl]amino]isoindolin-1-one] | ≤ 100 |
| C[C@H](OC1CCC1)c1ccc(Nc2ccc(-c3cnc4cnccn34)c3c2C(=O)NC3)nc1CN(C)C [Compound I-30] | ≤ 100 |
| CN1CCCC1c1nc(Nc2ccc(-c3cnc4cc(F)ccn34)c3c2C(=O)NC3)ccc1C1CCOC1 (centres unmarked) [Compound I-16] | 100 to 1000 |
| COC1CN(Cc2nc(Nc3ccc(-c4cnc5cnccn45)c4c3C(=O)NC4)ccc2C2CCOC2)C1 (centres unmarked) [Compound I-41, 4-imidazo[1,2-a]pyrazin-3-yl-7-[[6-[(3-methoxyazetidin-1-yl)methyl]-5-tetrahydrofuran-3-yl-2-pyridyl]amino]isoindolin-1-one] | > 1000 |
| CN(C)Cc1nc(Nc2ccc(-c3cnc4cc(F)ccn34)c3c2C(=O)NC3)ccc1N1CCOC(C)(C)C1=O [Compound I-23] | ≤ 100 |
| C[C@H](OC[C@H]1COCCO1)c1ccc(Nc2ccc(-c3cnc4cc(F)ccn34)c3c2C(=O)NC3)nc1CN(C)C (single isomer, unassigned) [Compound I-33] | ≤ 100 |
| CO[C@H]1CCN(Cc2nc(Nc3ccc(-c4cnc5cc(F)ccn45)c4c3C(=O)NC4)ccc2C2CCN(C)C(=O)C2)C1 (stereo partly drawn) [Compound I-43, 4-(7-fluoroimidazo[1,2-a]pyridin-3-yl)-7-[[6-[[(3S)-3-methoxypyrrolidin-1-yl]methyl]-5-(1-methyl-2-oxo-4-piperidyl)-2-pyridyl]amino]isoindolin-1-one] | ≤ 100 |
| CN(C)Cc1nc(Nc2ccc(-c3cnc4cc(C#N)ccn34)c3c2C(=O)NC3)ccc1C1CCOC1 (single isomer, unassigned) [Compound I-38, 3-(7-((6-((dimethylamino)methyl)-5-(tetrahydrofuran-3-yl)pyridin-2-yl)amino)-1-oxoisoindolin-4-yl)imidazo[1,2-a]pyridine-7-carbonitrile] | ≤ 100 |

| SMILES | IC50 [nM] |
| --- | --- |
| CN(C)Cc1nc(Nc2ccc(-c3cnc4cc(F)ccn34)c3c2C(=O)NC3)ccc1[C@]1(C)CCCO1 (single isomer, unassigned) [Compound I-6] | ≤ 100 |
| C[C@@H](OC1CCOCC1)c1ccc(Nc2ccc(-c3cnc4cc(F)ccn34)c3c2C(=O)NC3)nc1CN(C)C (single isomer, unassigned) [Compound I-24] | ≤ 100 |
| CN(C)Cc1nc(Nc2ccc(-c3cnc4cc(F)ccn34)c3c2C(=O)NC3)ccc1[C@@]1(C)CCCO1 (single isomer, unassigned) [Compound I-5] | ≤ 100 |
| C[C@H](c1nc(Nc2ccc(-c3cnc4cc(F)ccn34)c3c2C(=O)NC3)ccc1C1CCOCC1)N(C)C [Compound I-7, (R)-7-((6-(1-(dimethylamino)ethyl)-5-(tetrahydro-2H-pyran-4-yl)pyridin-2-yl)amino)-4-(7-fluoroimidazo[1,2-a]pyridin-3-yl)isoindolin-1-one] | 100 to 1000 |
| C[C@H](O)c1ccc(Nc2ccc(-c3cnc4cc(F)ccn34)c3c2C(=O)NC3)nc1CN(C)C [Compound I-10, (S)-7-((6-((dimethylamino)methyl)-5-(1-hydroxyethyl)pyridin-2-yl)amino)-4-(7-fluoroimidazo[1,2-a]pyridin-3-yl)isoindolin-1-one] | ≤ 100 |
| CN(C)Cc1nc(Nc2ccc(-c3cnc4cc(F)ccn34)c3c2C(=O)NC3)ccc1[C@H]1CC[C@H](O)C1 [Compound I-3, 7-((6-((dimethylamino)methyl)-5-((1S,3S)-3-hydroxycyclopentyl)pyridin-2-yl)amino)-4-(7-fluoroimidazo[1,2-a]pyridin-3-yl)isoindolin-1-one] | ≤ 100 |
| CN(C)Cc1nc(Nc2ccc(-c3cnc4cc(F)ccn34)c3c2C(=O)NC3)ccc1C1CCCC1 [Compound I-22] | ≤ 100 |
| CN(C)Cc1cc(C2CCOC2)cc(Nc2ccc(-c3cnc4cc(F)ccn34)c3c2C(=O)NC3)n1 (single isomer, unassigned) [Compound I-45] | ≤ 100 |
| CC(Oc1ccc(Nc2ccc(-c3cnc4cnccn34)c3c2C(=O)NC3)nc1CN(C)C)C1CC(F)(F)C1 (centres unmarked) [Compound I-49, 7-[[5-[1-(3,3-difluorocyclobutyl)ethoxy]-6-[(dimethylamino)methyl]-2-pyridyl]amino]-4-imidazo[1,2-a]pyrazin-3-yl-isoindolin-1-one] | ≤ 100 |
| CN(C)Cc1nc(Nc2ccc(-c3cnc4cc(F)ccn34)c3c2C(=O)NC3)ccc1[C@@H]1CC[C@H](O)C1 [Compound I-2, 7-((6-((dimethylamino)methyl)-5-((1R,3S)-3-hydroxycyclopentyl)pyridin-2-yl)amino)-4-(7-fluoroimidazo[1,2-a]pyridin-3-yl)isoindolin-1-one] | ≤ 100 |
| CN(C)Cc1cc(C2CCOC2)cc(Nc2ccc(-c3cnc4cc(F)ccn34)c3c2C(=O)NC3)n1 (centres unmarked) [Compound I-46] | > 1000 |
| CN(C)CCc1nc(Nc2cnc(-c3ccnc4c3ccn4C)c3c2C(=O)NC3)ccc1C1CCOCC1 [Compound I-13, 7-((6-(2-(dimethylamino)ethyl)-5-(tetrahydro-2H-pyran-4-yl)pyridin-2-yl)amino)-4-(1-methyl-1H-pyrrolo[2,3-b]pyridin-4-yl)-2,3-dihydro-1H-pyrrolo[3,4-c]pyridin-1-one] | ≤ 100 |
| C[C@@H](O)c1ccc(Nc2ccc(-c3cnc4cc(F)ccn34)c3c2C(=O)NC3)nc1CN(C)C [Compound I-9, (R)-7-((6-((dimethylamino)methyl)-5-(1-hydroxyethyl)pyridin-2-yl)amino)-4-(7-fluoroimidazo[1,2-a]pyridin-3-yl)isoindolin-1-one] | ≤ 100 |
| CN(C)Cc1nc(Nc2ccc(-c3cnc4cc(F)ccn34)c3c2C(=O)NC3)ccc1[C@@H]1COCCO1 (single isomer, unassigned) [Compound I-15] | ≤ 100 |
| CN1CC[C@H](c2ccc(Nc3ccc(-c4cnc5cc(F)ccn45)c4c3C(=O)NC4)nc2)C1=O [Compound I-53, (R)-4-(7-fluoroimidazo[1,2-a]pyridin-3-yl)-7-((5-(1-methyl-2-oxopyrrolidin-3-yl)pyridin-2-yl)amino)isoindolin-1-one] | ≤ 100 |
| CN(C)Cc1nc(Nc2ccc(-c3cnc4cc(F)ccn34)c3c2C(=O)NC3)ccc1C1(C)CCOCC1 [Compound I-4, 7-((6-((dimethylamino)methyl)-5-(4-methyltetrahydro-2H-pyran-4-yl)pyridin-2-yl)amino)-4-(7-fluoroimidazo[1,2-a]pyridin-3-yl)isoindolin-1-one] | ≤ 100 |
| CN(C)Cc1nc(Nc2ccc(-c3cnc4cc(F)ccn34)c3c2C(=O)NC3)ccc1[C@H]1COCCO1 (single isomer, unassigned) [Compound I-14] | ≤ 100 |
| CCN1CCC(c2ccc(Nc3ccc(-c4cnc5cc(F)ccn45)c4c3C(=O)NC4)nc2CN(C)C)CC1=O (centres unmarked) [Compound I-48, 7-[[6-[(dimethylamino)methyl]-5-(1-ethyl-2-oxo-4-piperidyl)-2-pyridyl]amino]-4-(7-fluoroimidazo[1,2-a]pyridin-3-yl)isoindolin-1-one] | ≤ 100 |
| Cc1cncc2ncc(-c3ccc(Nc4ccc([C@H]5CCOC5)c(CN(C)C)n4)c4c3CNC4=O)n12 (single isomer, unassigned) [Compound I-28] | ≤ 100 |
